Where two headings read alike, the source gives them in different places.
How the values were obtained:
Assay type in all cases: in vivo
[1] = test system: S. aureus Smith (ATCC 13709); assay: Mouse systemic infection (septicemia) model, S. aureus Smith; conditions: Staphylococcus aureus, CD-1 female mice; for responders at 3 mg/kg: ATCC13709, iv, IV 3 mg/kg one hour post infection, read-out: SA Smith septicemia survival IV (3 mg/kg); for responders at 3 mg/kg / responders at 30 mg/kg: 48 h, survival at 48 hours; for responders at 30 mg/kg: ATCC13709, po, PO 30 mg/kg one hour post infection, read-out: SA Smith septicemia survival PO (30 mg/kg); for ED50: ATCC13709, dose that prevents 50% of the mice from death, 48 hours
Description: Mouse Systemic Infection Protocol-S. aureus Smith Septicemia
Compounds were screened for antibacterial activity in vivo in a mouse systemic infection (septicemia) model. In the model, CD-1 female mice (18-22 grams) were injected IP with a S. aureus Smith (ATCC 13709) inoculum that results in 0% survival within 24 to 48 hours. The bacterial dose required to achieve this effect was previously established through virulence studies. At one hour post infection, mice received either […] IV or […] PO. Typically, six mice were treated per dose group. Animal survival was assessed and recorded for 48 hours. Percent survival at 48 hours was recorded and PD50 (mg/kg) was determined for each compound tested.

[2] = Pharmacokinetic studies in rats; conditions: rat, plasma, male Sprague Dawley rats, fasted; for clearance: read-out: Cl, IV Rat PK; for bioavailability: oral 10 mg/kg vs IV 1 mg/kg, read-out: % F (oral bioavailability), Oral Rat PK; for Cmax: read-out: Cmax, IV Rat PK
Description: Pharmacokinetic Studies in Rats Test compounds were evaluated in fasted (no food for 18 hours prior to dosing) male Sprague Dawley rats (3 animals per group) by administration of 1 mg/kg intravenously into the jugular vein and […] by oral gavage. Ten plasma samples were drawn for each dosing route up to 24 hours into heparin-coated vacutainer tubes. The plasma concentrations of the test compounds were quantified by LC/MS/MS using an internal standards. WinNONLIN was used to determine PK parameters ±standard deviation (AUC, Cmax, CL, Vss and % oral bioavailabilty (% F) and are set forth in Table F.

[3] = test system: K. pneumoniae ESBL Isolate KP453; assay: Murine kidney infection model, K. pneumoniae ESBL isolate KP453; conditions: Klebsiella pneumoniae, po, 36 h, BALB/c mice, PO 50 mg/kg at 9 and 24 hours post infection; read-out: KP453 ESBL UTI PO, log10 reduction in CFUs in the kidney versus untreated controls
Description: (§1) Kidney Infection Models for Uropathogenic E. coli EC200 and K. pneumoniae ESBL Isolate KP453
Compounds were also tested in BALB/c murine kidney infection model challenged with levofloxacin-resistant, ESBL^+ strain KP453 via intravenous injection with 2% carageenen. At 9 and 24 hours post infection mice were treated orally with 50 mg/kg of test compound. For IV administration, test compounds were dosed at 20 mg/kg. At 36 hours following initiation of treatment, mice were euthanized and bacterial reduction in the kidney was quantified by plating homogenates. Results are reported in Table D as log10 reduction in colony forming units (CFUs) in the kidney versus untreated controls (receiving no test compound).

[4] = test system: Uropathogenic E. coli EC200; assay: Murine kidney infection model, uropathogenic E. coli EC200; conditions: Escherichia coli, po, 36 h, BALB/c mice, PO 2 mg/kg at 12 and 24 hours post infection; read-out: EC200 UTI PO, log10 reduction in CFUs in the kidney versus untreated controls
Description: as §1
Compounds were tested in a BALB/c murine kidney infection model challenged with tetracycline-resistant E. coli strain uropathogenic […] via intravenous injection. […] For IV administration test compound was dosed at 3 mg/kg. Thirty-six hours following initiation of treatment, mice were euthanized and bacterial reduction in the kidney was quantified by plating kidney homogenates. Results are reported in Table D as log10 reduction in colony forming units (CFUs) in the kidney versus untreated controls (receiving no test compound).

[5] = IV, read-out: SA Smith septicemia PD50 IV
[6] = PO, read-out: SA Smith septicemia PD50 PO
[7] = IV 1 mg/kg, read-out: AUC, IV Rat PK
[8] = oral gavage 10 mg/kg, read-out: AUC, Oral Rat PK

Row | SMILES | responders at 3 mg/kg [1] | responders at 30 mg/kg [1] | ED50 [1, 5] | ED50 [1, 6] | clearance ([2]; IV 1 mg/kg) | bioavailability [2] | AUC [2, 7] | Cmax ([2]; IV 1 mg/kg) | AUC [2, 8] | log reduction at 50 mg/kg [3] | log reduction at 2 mg/kg [4]
1 | CC1CCN(Cc2cc(O)c3c(c2F)C[C@H]2C[C@H]4[C@H](N(C)C)C(O)=C(C(N)=O)C(=O)[C@@]4(O)C(O)=C2C3=O)CC1 [Compound S2-4-19] | 100% | 83% | 1 mg/kg | 14.3 mg/kg | 5 mL/min/kg | 14.9% | 3320 ng·h/mL | 518 ng/mL | 4980 ng·h/mL | 1.27 | 1.91
2 | CN(C)[C@@H]1C(O)=C(C(N)=O)C(=O)[C@@]2(O)C(O)=C3C(=O)c4c(O)cc(CN5CCCC5)c(C(F)(F)F)c4C[C@H]3C[C@@H]12 [Compound S25-11-1] | 100% | 100% | – | – | – | – | – | – | – | 1.84 | 3.97
3 | CN(C)[C@@H]1C(O)=C(C(N)=O)C(=O)[C@@]2(O)C(O)=C3C(=O)c4c(O)cc(CN5CCCC5(C)C)c(F)c4C[C@H]3C[C@@H]12 [Compound S2-4-12] | 100% | 100% | 0.69 mg/kg | 2.1 mg/kg | 21.3 mL/min/kg | 14.6% | 754 ng·h/mL | 126 ng/mL | 1160 ng·h/mL | 2.15 | 2.51
4 | COc1c(CN2CCCC[C@@H]2C)cc(O)c2c1C[C@H]1C[C@H]3[C@H](N(C)C)C(O)=C(C(N)=O)C(=O)[C@@]3(O)C(O)=C1C2=O [Compound S24-9-17] | 100% | 100% | – | – | – | – | – | – | – | 2.41 | 2.61
5 | CN(C)[C@@H]1C(O)=C(C(N)=O)C(=O)[C@@]2(O)C(O)=C3C(=O)c4c(O)cc(CN(C)C(C)(C)C)c(Cl)c4C[C@H]3C[C@@H]12 [Compound S15-13-15] | 100% | 100% | – | 3.5 mg/kg | 15.4 mL/min/kg | 21% | 1100 ng·h/mL | 154 ng/mL | 2260 ng·h/mL | 1.45 | 2.82
6 | COc1c(CN2[C@H](C)CCC[C@@H]2C)cc(O)c2c1C[C@H]1C[C@H]3[C@H](N(C)C)C(O)=C(C(N)=O)C(=O)[C@@]3(O)C(O)=C1C2=O [Compound S24-9-25] | 100% | 100% | – | – | – | – | – | – | – | 1.71 | 2.99
7 | C[C@H]1CCCN1Cc1cc(O)c2c(c1Cl)C[C@H]1C[C@H]3[C@H](N(C)C)C(O)=C(C(N)=O)C(=O)[C@@]3(O)C(O)=C1C2=O [Compound S15-13-194] | 100% | 100% | – | – | – | – | – | – | – | 2.18 | 3.44

Reference: US9315451B2, “Tetracycline compounds” (priority 2009, dated 2016)
